Assays:
Format in all cases: cell-based
MDA-MB-453 cells [1] = assay: Inhibition of proliferation of MDA-MB-453 cells (CCK-8 or CTG, 7-10 days); conditions: Homo sapiens, co-incubation 7-10 days, CCK-8 or CTG, read-out: IC50 values against MDA-MB-453 cells
Procedure: Triple negative breast cancer MDA-MB-453 cells in logarithmic growth stage were inoculated into a 96-well plate at a concentration of 4×10^3 cells/well, and then incubated in an incubator at 37° C., 5% CO2, and saturated humidity for 24 h or 48 h. To the negative control well, was added RPMI 1640 cell medium containing 10% fetal bovine serum in the same volume as the drug. After cultured for 24 h or 48 h, to the 96-well plate, were added AR PROTACs compounds 162, 177, 230, 259, 279, 281, 282, 325, 357, 400, ARV-110, ARV-766 and AR inhibitor HC-1119, respectively. The concentrations of compounds 177, 230, 259, 279, 281, 282, 325, 357, 400, ARV-110, and ARV-766 are 0 μM, 0.002 μM, 0.005 μM, 0.014 μM, 0.041 μM, 0.123 μM, 0.370 μM, 1.111 μM, 3.333 μM or 10 μM; while the concentrations of HC-1119 are 0 μM, 1.23 μM, 3.70 μM, 11.11 μM, 33.33 μM or 100 μM.
(§1) After addition of the drugs and co-incubation for 7-10 days, 10 μL of CCK-8 was added to each well, and then the plate was further cultured for 2 h. The absorbance value (OD) of each well was measured using a microplate reader at a wavelength of 450 nm. The survival rate was calculated using Prism software, the relative survival rate=(OD value of drug well/OD value of control well)×100%. Alternatively, 100 μL of medium was removed from each well, and then 50 μL of CTG was added. The plate was shaken in the dark for 2 min, allowed to stand for 10 min, and then measured using a microplate reader in Luminescence mode. Prism software was used to calculate the survival rate, the relative survival rate=(the RLU value of drug well/the RLU value of control well)×100%.

MDA-MB-453 cells [2] = assay: Combination with PI3K inhibitor Duvelisib, proliferation of MDA-MB-453 cells, Combination Index; conditions: molar ratio to Duvelisib 1:30-1:1.111, 7-10 days
Procedure: Triple negative breast cancer MDA-MB-453 cells in logarithmic growth stage were inoculated into a 96-well plate at a concentration of 4×10^3 cells/well, and then incubated in an incubator at 37° C., 5% CO2, and saturated humidity for 24 h. To the negative control wells, were added RPMI 1640 cell culture medium containing 10% fetal bovine serum in the same volume as the drug. After cultured for 24 h, to the 96-well plate, were sequentially added AR PROTACs compounds 279, 281, 282, ARV-110 and PI3K inhibitor Duvelisib, respectively.
as §1, with “adding” for “addition of”, “co-incubating” for “co-incubation”

MDA-MB-453 = assay: Antiproliferation, CellTiter-Glo, 5 days, MDA-MB-453; conditions: Homo sapiens, 120 h, MDA-MB-453, AR+ TNBC
Procedure: (§2) For MDA-MB-453, MFM-223, SUM159PT, MDA-MB-468, and HCC1937, 4,000, 3,000, 1,000, 3,000, and 3,000 cells were plated per well in 96-well microplates (Corning Inc), respectively. Cells were treated with serial dilutions of tested compounds with the maximum working concentration of 10 μM. Cell survival was measured 5 days later using a CellTiter-Glo luminescent cell viability assay kit (Promega Corporation). Luminescence was recorded by FLUOstar Omega microplate reader (BMG Labtech). Half maximal inhibitory concentration (IC50) was determined with GraphPad Prism using baseline correction (by normalizing to dimethyl sulfoxide (DMSO) control)

MDA-MB-468 = assay: Antiproliferation, CellTiter-Glo, 5 days, MDA-MB-468; conditions: Homo sapiens, 120 h, MDA-MB-468, AR− TNBC
Procedure: as §2

[3] = test system: AR+ TNBC cells (MDA-MB-453, SUM159PT and MFM-223) and AR- TNBC (MDA-MB-468 and HCC1937); assay: Antiproliferation in AR positive and negative TNBC cells (summary over the cell line panel); conditions: AR+ TNBC cells: MDA-MB-453, SUM159PT and MFM-223
Procedure: as §2

SMILES | IC50 (MDA-MB-453 cells [1]) [nM] | effect of the combination with Duvelisib on inhibiting proliferation (CI<1 = synergistic) (MDA-MB-453 cells [2]) | IC50 (MDA-MB-453) [nM] | IC50 (MDA-MB-468) [nM] | anti-proliferation activity in AR+ TNBC cells [3]
N#Cc1ccc(O[C@H]2CC[C@H](NC(=O)c3ccc(N4CCC(CN5CCN(c6cc7c(cc6F)C(=O)N(C6CCC(=O)NC6=O)C7=O)CC5)CC4)nn3)CC2)cc1Cl (stereo partly drawn) [ARV-110, reference compound] | ≤ 2000 | synergistic effect | 1400 | > 10000 | 
N#Cc1ccc(O[C@H]2CC[C@H](NC(=O)c3cnc(N4CCC(CN5CCC6(CC5)CN(c5ccc7c(c5)C(=O)N(C5CCC(=O)NC5=O)C7=O)C6)CC4)nn3)CC2)cc1Cl (stereo partly drawn) [Compound 279] | ≤ 2000 | synergistic effect | 140 | > 10000 | superior anti-proliferation activity
